Results published in patent US11149036B2, “3-(1H-pyrazol-4-yl)pyridine allosteric modulators of the M4 muscarinic acetylcholine receptor” (Merck Sharp & Dohme Corp., priority 2017, dated 2021).

target: T1, human M4 muscarinic acetylcholine receptor (Homo sapiens, UniProt P08173); assay: human FLIPR-based M4 PAM assay (CHO-K1 cells with human M4 receptor and Gaqi5, calcium dye fluorescence); assay type: cell-based; settings: inflection point (IP) of dose response curve, acetylcholine added at 20% of maximum response, read-out: M4 FLIPPR Hu IP
T1 construct: expressed in transfected cells; host or cells: CHO-K1
T1 sequence (P08173 1-479): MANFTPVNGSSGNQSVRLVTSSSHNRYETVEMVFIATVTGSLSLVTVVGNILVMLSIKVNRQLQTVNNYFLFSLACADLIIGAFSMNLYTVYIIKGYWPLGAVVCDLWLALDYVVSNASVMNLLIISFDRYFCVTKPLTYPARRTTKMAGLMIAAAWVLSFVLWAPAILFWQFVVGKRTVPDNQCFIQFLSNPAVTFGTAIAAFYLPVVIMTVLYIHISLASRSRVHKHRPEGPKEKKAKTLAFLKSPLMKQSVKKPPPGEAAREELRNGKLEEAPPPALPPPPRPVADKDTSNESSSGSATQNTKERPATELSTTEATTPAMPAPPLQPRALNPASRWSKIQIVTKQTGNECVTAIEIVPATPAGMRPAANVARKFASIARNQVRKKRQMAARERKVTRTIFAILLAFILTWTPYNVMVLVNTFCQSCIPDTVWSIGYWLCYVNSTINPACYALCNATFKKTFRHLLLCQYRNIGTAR
Method in brief: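 CHO-K1 cells stably expressing human M4 with chimeric Gaqi5, calcium-dye loaded ~1 h at 37° C; compound added at increasing concentrations 4 min before acetylcholine at an EC20 concentration (sometimes a further EC70 addition).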

Row | SMILES | EC50 [nM]
1 | Cn1cnc2cc(-c3nc(C#N)ccc3-c3cnn(CC4C[C@H](F)[C@@H](F)C4)c3)ccc21 [Example 72, 5-(1-(((3S,4S)-3,4-difluorocyclopentyl)methyl)-1H-pyrazol-4-yl)-6-(1-methyl-1H-benzo[d]imidazol-5-yl)picolinonitrile] | 41
2 | CC1(Cn2cc(-c3ccc(C#N)nc3-c3cnc4c(c3)C(=O)OC4)cn2)CCCC1 [Example 73, 5-(1-((1-methylcyclopentyl)methyl)-1H-pyrazol-4-yl)-6-(5-oxo-5,7-dihydrofuro [3,4-b]pyridin-3-yl) picolinonitrile] | 41
3 | CC1(Cn2cc(-c3ccc(C#N)nc3-c3ccn4c(F)cnc4c3)cn2)CCCC1 [Example 74, 6-(3-fluoroimidazo[1,2-a]pyridin-7-yl)-5-(1-((1-methylcyclopentyl)methyl)-1H-pyrazol-4-yl)picolinonitrile] | 58
4 | CC1(Cn2ncc(-c3ccc(C#N)nc3-c3ccn4ccnc4c3)c2Cl)CCCC1 [Example 81, 5-(5-chloro-1-((1-methylcyclopentyl)methyl)-1H-pyrazol-4-yl)-6-(imidazo[1,2-a]pyridin-7-yl)picolinonitrile] | 82
5 | CC1(Cn2cc(-c3ccc(C#N)nc3-c3ccn4cc(CO)nc4c3)cn2)CCCC1 [Example 82, 6-(2-(hydroxymethyl)imidazo [1,2-a]pyridin-7-yl)-5-(1-((1-methylcyclopentyl)methyl)-1H-pyrazol-4-yl)picolinonitrile] | 20
6 | Cn1cnc2cc(-c3nc(C#N)c(F)cc3-c3cnn(CC4(C)CCCC4)c3)cnc21 [Example 85, 3-fluoro-6-(3-methyl-3H-imidazo[4,5-b]pyridin-6-yl)-5-(1-((1-methylcyclopentyl)methyl)-1H-pyrazol-4-yl)picolinonitrile] | 37
7 | Cc1cn2ccc(-c3nc(C#N)c(F)cc3-c3cnn(CC4(C)CCCC4)c3)cc2n1 [Example 88, 3-fluoro-5-(1-((1-methylcyclopentyl)methyl)-1H-pyrazol-4-yl)-6-(2-methylimidazo [1,2-a]pyridin-7-yl)picolinonitrile] | 24
8 | Cn1cc2ccc(-c3nc(C#N)c(F)cc3-c3cnn(CC4(F)CCCC4)c3)cc2n1 [Example 89, 3-fluoro-5-(1-((1-fluorocyclopentyl)methyl)-1H-pyrazol-4-yl)-6-(2-methyl-2H-indazol-6-yl) picolinonitrile] | 67
9 | Cc1nnc2cc(-c3nc(C#N)c(F)cc3-c3cnn(CC4(F)CCCC4)c3)ccn12 [Example 90, 3-fluoro-5-(1-((1-fluorocyclopentyl)methyl)-1H-pyrazol-4-yl)-6-(3-methyl-[1,2,4]triazolo [4,3-a]pyridin-7-yl)picolinonitrile] | 42
10 | N#Cc1nc(-c2ccn3cc(C(F)(F)F)nc3c2)c(-c2cnn(CC3(F)CCCC3)c2)cc1F [Example 91, 3-fluoro-5-(1-((1-fluorocyclopentyl)methyl)-1H-pyrazol-4-yl)-6-(2-(trifluoromethyl)imidazo [1,2-a]pyridin-7-yl)picolinonitrile] | 33
11 | O=C1c2cc(-c3ncc(F)cc3-c3cnn(CC4(F)CCCC4)c3)ccc2CN1C1CC1 [Example 101, 2-cyclopropyl-6-(5-fluoro-3-(1-((1-fluorocyclopentyl)methyl)-1H-pyrazol-4-yl)pyridin-2-yl) isoindolin-1-one] | 69
12 | CC1(Cn2cc(-c3c(C#N)ccnc3-c3ccc4cccnc4c3)cn2)CCCC1 [Example 103, 3-(1-((1-methylcyclopentyl)methyl)-1H-pyrazol-4-yl)-2-(quinolin-7-yl)isonicotinonitrile] | 45
13 | FC(F)(F)c1ccc(-c2cnn(CC3CCCC3)c2)c(-c2ccc3cccnc3c2)n1 [Example 104, 7-(3-(1-(cyclopentylmethyl)-1H-pyrazol-4-yl)-6-(trifluoromethyl)pyridin-2-yl)quinoline] | 20

Further compounds by falling EC50, results first:

Row | EC50 [nM] | SMILES
14 | 232 | Cc1nc2cc(-c3ncc(F)cc3-c3cnn(CC4C[C@@H](F)[C@H](F)C4)c3)ccc2n1C [Example 102]
15 | 83 | Cc1nc2cc(-c3ncc(F)cc3-c3cnn(CC4(F)CCCC4)c3)ccc2n1C [Example 99, 5-(5-fluoro-3-(1-((1-fluorocyclopentyl)methyl)-1H-pyrazol-4-yl)pyridin-2-yl)-1,2-dimethyl-1H-benzo[d]imidazole]
16 | 82 | Fc1cnc(-c2ccn3cc(C(F)(F)F)nc3c2)c(-c2cnn(CC3(F)CCCC3)c2)c1 [Example 98, 7-(5-fluoro-3-(1-((1-fluorocyclopentyl)methyl)-1H-pyrazol-4-yl)pyridin-2-yl)-2-(trifluoromethyl)imidazo [1,2-a]pyridine]
17 | 80 | CC1(Cn2cc(-c3ccc(C#N)nc3-c3ccn4nccc4c3)cn2)CCCC1 [Example 79, 5-(1-((1-methylcyclopentyl)methyl)-1H-pyrazol-4-yl)-6-(pyrazolo[1,5-a]pyridin-5-yl) picolinonitrile]
18 | 80 | Fc1cnc(-c2ccc3cccnc3c2)c(-c2cnn(CC3(F)CCCC3)c2)c1 [Example 95, 7-(5-fluoro-3-(1-((1-fluorocyclopentyl)methyl)-1H-pyrazol-4-yl)pyridin-2-yl) quinoline]
19 | 68 | Cc1nc2cc(-c3ncc(F)cc3-c3cnn(CC4(F)CCCC4)c3)ccn2c1C [Example 97, 7-(5-fluoro-3-(1-((1-fluorocyclopentyl)methyl)-1H-pyrazol-4-yl)pyridin-2-yl)-2,3-dimethylimidazo[1,2-a] pyridine]
20 | 66 | CC1(Cn2cc(-c3ccc(C#N)nc3-c3ccn4cncc4c3)cn2)CCCC1 [Example 77, 6-(imidazo[1,5-a]pyridin-7-yl)-5-(1-((1-methylcyclopentyl)methyl)-1H-pyrazol-4-yl)picolinonitrile]
21 | 65 | Cc1nc2cc(-c3nc(C#N)ccc3-c3cnn(CC4(C)CCCC4)c3)cnc2o1 [Example 80, 5-(1-((1-methylcyclopentyl)methyl)-1H-pyrazol-4-yl)-6-(2-methyloxazolo[5,4-b]pyridin-6-yl)picolinonitrile]
22 | 35 | Cc1cc(-c2cnn(CC3(F)CCCC3)c2)c(-c2ccn3ccnc3c2)nc1F [Example 94, 7-(6-fluoro-3-(1-((1-fluorocyclopentyl)methyl)-1H-pyrazol-4-yl)-5-methylpyridin-2-yl) imidazo[1,2-a]pyridine]
23 | 35 | Cc1cn2ccc(-c3ncc(F)cc3-c3cnn(CC4(F)CCCC4)c3)cc2n1 [Example 96, 7-(5-fluoro-3-(1-((1-fluorocyclopentyl)methyl)-1H-pyrazol-4-yl)pyridin-2-yl)-2-methylimidazo[1,2-a] pyridine]
24 | 34 | Cc1cc(-c2cnn(CC3(C)CCCC3)c2)c(-c2ccn3ccnc3c2)nc1F [Example 93, 7-(6-fluoro-5-methyl-3-(1-((1-methylcyclopentyl)methyl)-1H-pyrazol-4-yl)pyridin-2-yl)imidazo[1,2-a]pyridine]
25 | 33 | N#Cc1ccc(-c2cnn(CC3C[C@@H](F)[C@H](F)C3)c2)c(-c2ccc3cccnc3c2)n1 [Example 84, 5-(1-(((3R,4R)-3,4-difluorocyclopentyl)methyl)-1H-pyrazol-4-yl)-6-(quinolin-7-yl)picolinonitrile]
26 | 31 | CC1(Cn2cc(-c3ccc(C#N)nc3-c3ccn4ncnc4c3)cn2)CCCC1 [Example 75, 6-([1,2,4]triazolo[1,5-a]pyridin-7-yl)-5-(1-((1-methylcyclopentyl)methyl)-1H-pyrazol-4-yl)picolinonitrile]
27 | 29 | CC1(Cn2cc(-c3ccc(C#N)nc3-c3ccn4nc(CF)nc4c3)cn2)CCCC1 [Example 78, 6-(2-(fluoromethyl)-[1,2,4]triazolo[1,5-a]pyridin-7-yl)-5-(1-((1-methylcyclopentyl)methyl)-1H-pyrazol-4-yl)picolinonitrile]
28 | 26 | Cc1cn2ccc(-c3nc(C#N)ccc3-c3cnn(CC4C[C@@H](F)[C@H](F)C4)c3)cc2n1 [Example 83, 5-(1-(((3R,4R)-3,4-difluorocyclopentyl)methyl)-1H-pyrazol-4-yl)-6-(2-methylimidazo[1,2-a]pyridin-7-yl)picolinonitrile]
29 | 23 | CC1(Cn2cc(-c3ccc(C#N)nc3-c3ccn4cc(C(F)F)nc4c3)cn2)CCCC1 [Example 76, 6-(2-(difluoromethyl)imidazo [1,2-a]pyridin-7-yl)-5-(1-((1-methylcyclopentyl)methyl)-1H-pyrazol-4-yl)picolinonitrile]
30 | 18 | Cn1cnc2cc(-c3nc(C#N)c(F)cc3-c3cnn(CC4(C)CCCC4)c3)ccc21 [Example 86, 3-fluoro-6-(1-methyl-1H-benzo[d]imidazol-5-yl)-5-(1-((1-methylcyclopentyl)methyl)-1H-pyrazol-4-yl)picolinonitrile]
31 | 11 | CC1(Cn2cc(-c3cc(F)c(C#N)nc3-c3ccn4ccnc4c3)cn2)CCCC1 [Example 87, 3-fluoro-6-(imidazo[1,2-a]pyridin-7-yl)-5-(1-((1-methylcyclopentyl)methyl)-1H-pyrazol-4-yl)picolinonitrile]
32 | 4 | COc1cc2ccc(-c3nc(F)ccc3-c3cnn(CC4(C)CCCC4)c3)cc2nn1 [Example 92, 7-(6-fluoro-3-(1-((1-methylcyclopentyl)methyl)-1H-pyrazol-4-yl)pyridin-2-yl)-3-methoxycinnoline]
